# Numbered stars: 1 amine (or outer) side, 2 acyl side, 3 side chain; on linkers, the order of the positions; unused ones are H or OH. Bridge positions count the residues as written; N and C are the ends. Square brackets hold non-standard residues; d marks the D form. Peptide text beside a SMILES is read from it. * marks the point of attachment. Trp(βS-Me,7-OMe) = COc1cccc2c([C@H](C)[C@H](N)C(=O)O)c[nH]c12; Trp(4-Cl) = N[C@@H](Cc1c[nH]c2cccc(Cl)c12)C(=O)O; Trp(7-Cl) = N[C@@H](Cc1c[nH]c2c(Cl)cccc12)C(=O)O; Phe(4-COOH) = N[C@@H](Cc1ccc(C(=O)O)cc1)C(=O)O; Trp(7-aza) = N[C@@H](Cc1c[nH]c2ncccc12)C(=O)O; X10 = O=C([C@H](Cc1ccnc2ccccc12)N[*:1])[*:2]; Phe(4-CH2NH2) = NCc1ccc(C[C@H](N)C(=O)O)cc1; αMeW = C[C@](N)(Cc1c[nH]c2ccccc12)C(=O)O; X1 = O=C([C@@H]1CC[C@H](N[*:1])C1)[*:2]; X6 = O=C([C@@H](N[*:1])C1(O)CC1)[*:2]; Pip(4-aza) = O=C(O)[C@@H]1CNCCN1; 4Pal = N[C@@H](Cc1ccncc1)C(=O)O; NMeE = CN[C@@H](CCC(=O)O)C(=O)O; αMeS = C[C@](N)(CO)C(=O)O; Carboxymethyl = O=C(O)C*; Nle = CCCC[C@H](N)C(=O)O; Sar = CNCC(=O)O
# Key:
# [1] = target: T1, human TNFR1 extracellular domain (ECD) protein (Homo sapiens, UniProt P19438); assay: SPR binding affinity to captured human TNFR1 ECD
# T1 construct: HRV 3C protease cleavage site (C); 6His (C, cleaved yes); made in house; host or cells: Sf21 insect cells (baculovirus), secreted
# T1 sequence (P19438 30-211): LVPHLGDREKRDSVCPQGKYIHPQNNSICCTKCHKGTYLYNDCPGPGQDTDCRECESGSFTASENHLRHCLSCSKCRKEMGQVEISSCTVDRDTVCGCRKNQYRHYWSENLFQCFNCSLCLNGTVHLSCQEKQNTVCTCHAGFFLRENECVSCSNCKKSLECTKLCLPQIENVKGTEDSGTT
# How it was run: (§1)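 Peptide binding kinetics read by SPR in HEPES pH 7.4 running buffer with 2% DMSO, with TNFR2 ECD tested in parallel for off-target binding. Receptor ECDs, insect-cell expressed and biotinylated at C-terminal avi-tag, were captured via streptavidin. KA derived from association and dissociation rate constants.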
# [2] = target: T2, human TNFR2 ECD protein (Homo sapiens, UniProt P20333); assay: SPR off-target binding (selectivity) to human TNFR2 ECD
# T2 construct: HRV 3C protease cleavage site (C); 6His (C, cleaved yes); made in house; host or cells: Sf21 insect cells (baculovirus), secreted
# T2 sequence (P20333 23-257): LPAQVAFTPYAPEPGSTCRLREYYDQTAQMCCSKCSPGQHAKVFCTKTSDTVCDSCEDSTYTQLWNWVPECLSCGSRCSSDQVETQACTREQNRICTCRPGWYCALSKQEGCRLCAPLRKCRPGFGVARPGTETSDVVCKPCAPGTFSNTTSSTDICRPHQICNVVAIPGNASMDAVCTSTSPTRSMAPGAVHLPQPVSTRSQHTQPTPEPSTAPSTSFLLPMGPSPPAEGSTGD
# How it was run: as §1
# [3] = target: T3, human soluble TNFR1 (sTNFR1) (Homo sapiens, UniProt P19438); assay: Human sTNFR1-peptide displacement assay (LanthaScreen Eu TR-FRET binding assay)
# T3 construct: made in house; host or cells: Sf21 (baculovirus)
# T3 sequence (P19438 with tags, fused parts or gaps): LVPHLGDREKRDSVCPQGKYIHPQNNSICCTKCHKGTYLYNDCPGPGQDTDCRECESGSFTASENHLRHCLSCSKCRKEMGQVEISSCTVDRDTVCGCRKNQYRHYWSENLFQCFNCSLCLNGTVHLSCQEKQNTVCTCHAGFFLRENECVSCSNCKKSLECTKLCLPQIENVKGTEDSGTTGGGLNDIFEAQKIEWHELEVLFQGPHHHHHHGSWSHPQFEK
# How it was run: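 Readout is the 665/615 nm TR-FRET ratio (Eu anti-His donor, streptavidin-Alexa647 acceptor), normalized to DMSO and saturating displacer, fit by Morrison-based five-parameter logistic for Kd^app. His-tagged sTNFR1 (1-211) prebound to 100 nM biotinylated peptide SEQ ID NO.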
Compound,Kd [1] [nM],Kd [2] [nM],IC50 [3] [nM],Kd [3] [nM]
C[C@@]1(CO)NC(=O)[C@H](Cc2c[nH]c3ncccc23)NC(=O)[C@H](Cc2ccncc2)NC(=O)[C@H](CC(N)=O)NC(=O)[C@H]2CCCN2C(=O)[C@H](Cc2ccnc3ccccc23)NC(=O)[C@H](CO)NC(=O)[C@H](Cc2ccncc2)NC(=O)[C@H](CCC(N)=O)NC(=O)CSC[C@@H](C(N)=O)NC(=O)[C@H](Cc2c[nH]c3cccc(Cl)c23)NC(=O)[C@@H]2CCCN2C(=O)[C@H](Cc2ccc(O)cc2)NC(=O)[C@H](Cc2ccc(C(=O)O)cc2)NC1=O [SEQ ID NO. 278] ({CH2CO}-Q[4Pal]S[X10][dP]N[4Pal][Trp(7-aza)][αMeS][Phe(4-COOH)]YP[Trp(4-Cl)]C-NH2; thioether N-14),12.8,> 1000,8.69,–
CCCC[C@@H]1NC(=O)CSC[C@@H](C(N)=O)NC(=O)[C@](C)(Cc2c[nH]c3ccccc23)NC(=O)CN(C)C(=O)[C@H](Cc2ccc(O)cc2)NC(=O)[C@H](Cc2ccc(C(=O)O)cc2)NC(=O)[C@](C)(CO)NC(=O)[C@H](Cc2c[nH]c3c(Cl)cccc23)NC(=O)[C@H](Cc2ccncc2)NC(=O)[C@H](CC(N)=O)NC(=O)[C@H](CCC(=O)O)N(C)C(=O)[C@H](Cc2c[nH]c3ncccc23)NC(=O)[C@H](C2(O)CC2)NC(=O)[C@H](Cc2ccncc2)NC1=O [SEQ ID NO. 281] ({CH2CO}-[Nle][4Pal][X6][Trp(7-aza)][NMeE]N[4Pal][Trp(7-Cl)][αMeS][Phe(4-COOH)]Y[Sar][αMeW]C-NH2; thioether N-14),0.5,> 1000,1.4,–
CCCC[C@@H]1NC(=O)CSC[C@@H](C(N)=O)NC(=O)[C@](C)(Cc2c[nH]c3ccccc23)NC(=O)CN(C)C(=O)[C@H](Cc2ccc(O)cc2)NC(=O)[C@H](Cc2ccc(OCC(=O)O)cc2)NC(=O)[C@](C)(CO)NC(=O)[C@H](Cc2c[nH]c3c(Cl)cccc23)NC(=O)[C@H](Cc2ccncc2)NC(=O)[C@H](CC(N)=O)NC(=O)[C@H](CCC(=O)O)N(C)C(=O)[C@H](Cc2c[nH]c3ncccc23)NC(=O)[C@H](CO)NC(=O)[C@H](Cc2ccc(CN)cc2)NC1=O [SEQ ID NO. 283] ({CH2CO}-[Nle][Phe(4-CH2NH2)]S[Trp(7-aza)][NMeE]N[4Pal][Trp(7-Cl)][αMeS]Y(Carboxymethyl)Y[Sar][αMeW]C-NH2; thioether N-14),0.5,> 1000,1.45,–
"CCCC[C@@H]1NC(=O)[C@@H]2CC[C@@H](C2)NC(=O)[C@H]([C@@H](C)c2c[nH]c3c(OC)cccc23)NC(=O)CN(C)C(=O)[C@H](Cc2ccc(O)cc2)NC(=O)[C@H](Cc2ccc(C(=O)O)cc2)NC(=O)[C@](C)(CO)NC(=O)[C@H](Cc2c[nH]c3c(Cl)cccc23)NC(=O)[C@H](Cc2ccc(C(=O)O)cc2)NC(=O)[C@H](CC(N)=O)NC(=O)[C@H](CCC(=O)O)N(C)C(=O)[C@H](Cc2c[nH]c3ccccc23)NC(=O)[C@@H]2CNCCN2C(=O)[C@H](Cc2ccncc2)NC1=O [SEQ ID NO. 288] (cyclo([4Pal][Pip(4-aza)]W[NMeE]N[Phe(4-COOH)][Trp(7-Cl)][αMeS][Phe(4-COOH)]Y[Sar][Trp(βS-Me,7-OMe)][X1][Nle]))",0.1,> 1000,0.2,0.11
CN1CC(=O)N[C@@H](CC(N)=O)C(=O)N[C@@H](Cc2ccc(O)cc2)C(=O)N[C@@H](Cc2c[nH]c3ccccc23)C(=O)N[C@@H](CO)C(=O)N[C@@H](Cc2ccc(O)cc2)C(=O)N[C@@H](Cc2ccc(O)cc2)C(=O)N(C)CC(=O)N[C@@H](Cc2c[nH]c3ccccc23)C(=O)N[C@H](C(=O)NCC(=O)N[C@@H](CCC(=O)O)C(=O)N[C@@H](CCC(=O)O)C(N)=O)CSCC(=O)N[C@@H](Cc2ccccc2)C(=O)N[C@@H](Cc2ccc(O)cc2)C(=O)N[C@@H](CO)C(=O)N[C@@H](Cc2c[nH]c3ccccc23)C1=O [SEQ ID NO. 289] ({CH2CO}-FYSW[Sar]NYWSYY[Sar]WCGEE-NH2; thioether N-14),7.43,> 1000,9.87,–
